Assays:
[1] = refractive index (Na D-line) (dimensionless); conditions: 101.33 kPa, Liquid, Standard Abbe refractometry
[2] = 101.33 kPa, Liquid; for speed of sound: Sing-around technique in a fixed-path interferometer; for mass density: Vibrating tube method

CC(C)COC(=O)CC[C@H]([NH3+])C(=O)OCC(C)C.CCCCCCCCCCCCOS(=O)(=O)[O-]
Conditions	mass density, [2] [kg/m3]	refractive index, [1]	speed of sound, [2] [m/s]
323.15 K	1014.45	1.4472	1330.6
328.15 K	1010.78	1.4453	1314.4
333.15 K	1007.13	1.4432	1299.9
338.15 K	1003.54	1.4414	1284.2
343.15 K	1000	1.4393	1270.5

CC(C)OC(=O)CC[C@H]([NH3+])C(=O)OC(C)C.CCCCCCCCCCCCOS(=O)(=O)[O-]
Conditions	mass density, [2] [kg/m3]	refractive index, [1]	speed of sound, [2] [m/s]
288.15 K	1057.9	1.4575	1439.7
293.15 K	1054.11	1.4559	1412.8
298.15 K	1050.31	1.4542	1389
303.15 K	1046.47	1.4528	1367.6
308.15 K	1042.57	1.4509	1347.9
313.15 K	1038.6	1.4493	1329.5
318.15 K	1034.81	1.4476	1312
323.15 K	1031.13	1.4461	1295.3
328.15 K	1027.46	1.4442	1279.2
333.15 K	1023.79	1.4429	1263.5
338.15 K	1021.2	1.441	1248.3
343.15 K	1016.44	1.4392	1233.6

CC(C)OC(=O)[C@@H]([NH3+])C(C)C.CCCCCCCCCCCCOS(=O)(=O)[O-]
Conditions	mass density, [2] [kg/m3]	refractive index, [1]	speed of sound, [2] [m/s]
288.15 K	1033.35	1.4555	1438.4
293.15 K	1029.74	1.4541	1418.5
298.15 K	1026.11	1.4527	1400.5
303.15 K	1022.44	1.4514	1382.9
308.15 K	1018.71	1.4495	1365.9
313.15 K	1014.93	1.4483	1349.4
318.15 K	1011.36	1.4465	1333.2
323.15 K	1007.86	1.445	1317.4
328.15 K	1004.37	1.4434	1301.9
333.15 K	1000.88	1.4419	1286.6
338.15 K	997.39	1.4403	1270.4
343.15 K	993.9	1.4388	1254.9

CC(C)COC(=O)C[NH3+].CCCCCCCCCCCCOS(=O)(=O)[O-] [2-isobutoxy-2-oxoethan-1-aminium dodecyl sulfate]
Conditions	mass density, [2] [kg/m3]	refractive index, [1]	speed of sound, [2] [m/s]
303.15 K	1013.62	1.4624	1372.1
308.15 K	1009.88	1.4592	1355.2
313.15 K	1006.14	1.456	1339
318.15 K	1002.38	1.4527	1323
323.15 K	998.71	1.4494	1307.6
328.15 K	995.15	1.4462	1292.5
333.15 K	991.89	1.443	1277.6
338.15 K	988.22	1.4397	1263
343.15 K	984.53	1.4365	1248.7

CC(C)OC(=O)C[NH3+].CCCCCCCCCCCCOS(=O)(=O)[O-] [2-isopropoxy-2-oxoethan-1-aminium dodecyl sulfate]
Conditions	mass density, [2] [kg/m3]	refractive index, [1]	speed of sound, [2] [m/s]
303.15 K	1025.14	1.463	1373.4
308.15 K	1021.37	1.4603	1355.1
313.15 K	1017.68	1.4576	1337.6
318.15 K	1014.16	1.4549	1320.9
323.15 K	1010.65	1.4529	1305
328.15 K	1007.14	1.4497	1289.6
333.15 K	1003.63	1.4465	1274.6
338.15 K	1000.12	1.4441	1259.9
343.15 K	996.58	1.4414	1245.8
